# Legend:
# [1] = accelerated stability study on the drug; format: physicochemical; details: 60° C. and 90% relative humidity for up to 4 weeks
# Method: Thus, in the development of a terbutaline sulphate dosage form, the applicant carried out accelerated stability studies on the drug at a temperature of 60° C. and 90% relative humidity for up to 4 weeks.
# [2] = oxidative degradation, aqueous solutions; cited from earlier work
degradation products [1],SMILES,stability of drug substance [2]
No degradation products were observed,CC(C)(C)NCC(O)c1cc(O)cc(O)c1 (centres unmarked) [terbutaline sulphate],
,CC(C)(C)NCC(O)c1cc(O)cc(O)c1 (centres unmarked) [terbutaline],highly stable
